Assay [1] deals with Signal transducer and activator of transcription 3 (Homo sapiens) (UniProt P40763). As to the kind of experiment: Inhibition of STAT3 in human HCT 116 cells co-transfected with pSTAT3-TA-Luc at 2 uM after 24 hrs by dual luciferase assay. The format is cell-based.
Assay [2] has as its system HCT-116. Briefly: Induction of apoptosis in human HCT116 cells assessed as increase in cleaved PARP level at 10 uM by western blot analysis. The format is functional, cell-based.
Assay [3] has as its system MDA-MB-468. As to the kind of experiment: Growth inhibition of human MDA-MB-468 cells assessed as cell proliferation at highest concentration after 24 hrs by WST-1 assay. In kind it is functional. In general terms: Tetrazolium assays rely on reduction of a dye to a coloured formazan, in cell work by metabolically active cells.
The subject of assay [4] is HCT-116. As to the kind of experiment: Inhibition of human HCT116 cell proliferation at highest concentration after 48 hrs by WST-1 assay. In kind it is functional, cell-based.
Assay [5] has as its system SW-620. Briefly: Inhibition of human SW620 cell proliferation at highest concentration after 48 hrs by WST-1 assay. In kind it is functional, cell-based.
In assay [6] the test system is HCT-116. As to the kind of experiment: Induction of apoptosis in human HCT116 cells assessed as rounded and floated morphology at 2.5 to 50 uM. In kind it is functional, cell-based.
The test system of assay [7] is MDA-MB-231. Briefly: Growth inhibition of human MDA-MB-231 cells assessed as cell proliferation at highest concentration after 24 hrs by WST-1 assay. In kind it is functional.
Assay [8] deals with SW-620. As to the kind of experiment: Growth inhibition of human SW620 cells assessed as cell proliferation at highest concentration after 24 hrs by WST-1 assay. The format is functional.
Assay [9] concerns MDA-MB-231. As to the kind of experiment: Inhibition of human MDA-MB-231 cell proliferation at highest concentration after 48 hrs by WST-1 assay. In kind it is functional, cell-based.
The test system of assay [10] is MDA-MB-468. Briefly: Inhibition of human MDA-MB-468 cell proliferation at highest concentration after 48 hrs by WST-1 assay. The format is functional, cell-based.
Assay [11] deals with HCT-116. As to the kind of experiment: Induction of apoptosis in human HCT116 cells assessed as increase in cleaved caspase-3 level at 10 uM by western blot analysis. In kind it is functional, cell-based. In general terms: Immunoblotting shows a protein as a band on a membrane.
Assay [12] has as its target Signal transducer and activator of transcription 3 (Homo sapiens) (UniProt P40763). As to the kind of experiment: Inhibition of STAT3 in human HCT 116 cells co-transfected with pSTAT3-TA-Luc after 24 hrs by dual luciferase assay. In kind it is cell-based.
For assay [13], the system named is HCT-116. Briefly: Growth inhibition of human HCT116 cells assessed as cell proliferation at highest concentration after 24 hrs by WST-1 assay. The format is functional.

Structures are written as SMILES. Active and inactive are the calls of the source. The rule behind the calls is not given here.

Chain of Signal transducer and activator of transcription 3 (Homo sapiens) (P40763 whole entry): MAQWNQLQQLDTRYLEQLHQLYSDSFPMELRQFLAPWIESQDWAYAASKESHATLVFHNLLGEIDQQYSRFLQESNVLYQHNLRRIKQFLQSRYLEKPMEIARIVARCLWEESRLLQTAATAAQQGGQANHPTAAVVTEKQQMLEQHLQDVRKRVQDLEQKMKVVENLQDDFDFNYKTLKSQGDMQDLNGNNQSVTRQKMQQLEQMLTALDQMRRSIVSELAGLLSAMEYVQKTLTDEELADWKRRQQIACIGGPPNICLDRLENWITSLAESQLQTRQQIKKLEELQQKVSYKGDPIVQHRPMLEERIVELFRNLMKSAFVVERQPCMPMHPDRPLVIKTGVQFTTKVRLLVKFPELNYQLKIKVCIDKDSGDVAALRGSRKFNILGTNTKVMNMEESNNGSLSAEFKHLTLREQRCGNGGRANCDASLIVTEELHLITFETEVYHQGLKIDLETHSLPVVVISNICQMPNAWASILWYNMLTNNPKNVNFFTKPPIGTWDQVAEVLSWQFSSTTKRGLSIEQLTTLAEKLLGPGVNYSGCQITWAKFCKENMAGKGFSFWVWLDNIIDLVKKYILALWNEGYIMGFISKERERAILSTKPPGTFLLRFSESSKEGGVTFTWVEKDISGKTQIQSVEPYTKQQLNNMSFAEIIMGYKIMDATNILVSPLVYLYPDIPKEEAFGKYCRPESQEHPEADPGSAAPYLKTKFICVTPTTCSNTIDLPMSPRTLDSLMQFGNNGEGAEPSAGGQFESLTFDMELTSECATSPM

One may read the inhibition as the drop in the measured response relative to a control, in per cent. Consider `COC(=O)c1nonc1NC(=O)Cc1ccccc1`, for which, in assay [1], the inhibition was found to be 9%.
Take `O=C(NCc1ccccc1)Nc1nonc1-c1ccccc1`: the inhibition in [1] stood at 11%.
As to `CN(C(=O)N(C)c1nonc1-c1ccc(Cl)cc1)c1ccc(C(F)(F)F)cc1`, the inhibition in assay [1] was determined as 8%.
On to `Cc1nonc1NS(=O)(=O)Cc1ccccc1`, for which, in [1], the inhibition was 6%.
The same measure, in the same setting: the result for `CN(C(=O)Nc1nonc1-c1ccc(O)cc1)c1ccc(C(F)(F)F)cc1` reads 51%; that for `O=C(Nc1ccccc1)Nc1nonc1-c1ccccc1`, 36%; that for `COC(=O)c1nonc1NS(=O)(=O)Cc1ccccc1`, 7%.
For `O=C(Cc1ccccc1)Nc1nonc1-c1ccccc1`, in assay [1], the inhibition came to 11%.
On the same count and under the same terms, under `CN(C(=O)Nc1nonc1-c1ccc(Cl)cc1)c1ccccc1` stands 25%.
`O=C(Nc1ccc(C(F)(F)F)cc1)Nc1nonc1-c1ccc(Cl)cc1`: the result in the assay with HCT-116 [2], in the assay with HCT-116 [6] and with HCT-116 [11] was Active. For the same molecule, the “growth inhibition (GI)” value in the assay on MDA-MB-468 [3], in the assay with MDA-MB-231 [7], in the assay on SW-620 [8] and in the assay with HCT-116 [13] was 50% in each case. Besides, the inhibition result in the assay with HCT-116 [4], with SW-620 [5], in the assay on MDA-MB-231 [9] and in the assay on MDA-MB-468 [10] was “Active” throughout. Also, the inhibition in assay [1] was 45%; in assay [12], “Dose-dependent effect”.
On to `Cc1nonc1NC(=O)Nc1ccccc1`, for which the inhibition in assay [1] was 2%.
With `O=S(=O)(Cc1ccccc1)Nc1nonc1CO`, the inhibition in assay [1] was -2%.
The same measure, in the same setting: the result for `O=S(=O)(Nc1nonc1-c1ccc(Cl)cc1)c1ccc(C(F)(F)F)cc1` reads -3%; that for `Cc1nonc1NC(=O)Cc1ccccc1`, 6%.
`CC(=O)Oc1ccc(-c2nonc2NC(=O)N(C)c2ccc(C(F)(F)F)cc2)cc1`: the inhibition in [1] stood at 32%.
On to `O=C(Nc1nonc1-c1ccc(Cl)cc1)c1ccc(C(F)(F)F)cc1`, for which, in assay [1], the inhibition is -7%.
For the molecule `CC(=O)Oc1ccc(-c2nonc2N(C)C(=O)N(C)c2ccc(C(F)(F)F)cc2)cc1`, the inhibition in [1] was 26%.
Same read-out and setting: the result for `CN(C(=O)Nc1nonc1-c1ccc(OCc2ccccc2)cc1)c1ccc(C(F)(F)F)cc1` reads 21%.
For `O=C(Nc1ccc(C(F)(F)F)cc1)Nc1nonc1-c1ccc(O)cc1`, the inhibition in [1] came out at 24%.
`O=C(Cc1ccccc1)Nc1nonc1CO`: the inhibition in [1] is 14%.

The values above are taken from ChEMBL document CHEMBL3217598, “Synthesis, modeling, and crystallographic study of 3,4-disubstituted-1,2,5-oxadiazoles and evaluation of their ability to decrease STAT3 activity” (Medchemcomm, 2010).
